According to patent US9018388B2, “Pesticidal compositions and processes related thereto” (Dow AgroSciences LLC, priority 2012, dated 2015):

What was measured:
[1] = system: Beet Armyworm (BAW) (Spodoptera exigua); test: Bioassay on beet armyworm (BAW), 128-well diet tray assay; format: in vivo; details: Beet armyworm, 50 μg/cm^2; for pest or weed control at 50 µg/cm2, 50 µg/cm2: Spodoptera exigua, read-out: % Mortality BAW 50 μg/cm^2
Procedure, shortened: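 Second-instar Spodoptera exigua larvae, one to five per well, on artificial diet treated with 50 μg/cm^2 compound in 90:10 acetone-water and dried, eight wells per compound. Held at 25 °C, 14:10 light-dark for five to seven days; percent mortality averaged over wells.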

[2] = system: Corn Earworm (CEW) (Helicoverpa zea); test: Bioassay on corn earworm (CEW), 128-well diet tray assay; format: in vivo; details: Corn earworm, 50 μg/cm^2; for pest or weed control at 50 µg/cm2, 50 µg/cm2: Helicoverpa zea, read-out: % Mortality CEW 50 μg/cm^2
Procedure, shortened: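 Second-instar Helicoverpa zea larvae (one to five per well) placed on artificial diet treated with 50 μg/cm^2 compound in 90:10 acetone-water, dried, eight wells per compound. Held at 25 °C, 14:10 light-dark, five to seven days; percent mortality averaged over wells.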

[3] = system: Green Peach Aphid (GPA) (Myzus persicae); test: Bioassay on green peach aphid (GPA), foliar spray on cabbage seedlings; format: in vivo; details: 72 h, read-out: % Mortality GPA 200 ppm
Experimental: Bioassays on Green Peach Aphid (“GPA”) (Myzus persicae)
Certain molecules disclosed in this document were tested against GPA using procedures described in the following example. In the reporting of the results, the “GPA Rating Table” was used (See Table Section).
Cabbage seedlings grown in 3-inch pots, with 2-3 small (3-5 cm) true leaves, were used as test substrate. The seedlings were infested with 20-50 GPA (wingless adult and nymph stages) one day prior to chemical application. Four pots with individual seedlings were used for each treatment. Test compounds (2 mg) were dissolved in 2 mL of acetone/methanol (1:1) solvent, forming stock solutions of 1000 ppm test compound. The stock solutions were diluted 5× with 0.025% Tween 20 in H2O to obtain the solution at 200 ppm test compound. A hand-held aspirator-type sprayer was used for spraying a solution to both sides of […] leaves until runoff. Reference plants (solvent check) were sprayed with the diluent only containing 20% by volume of acetone/methanol (1:1) solvent. Treated plants were held in a holding room for three days at approximately 25° C. and ambient relative humidity (RH) prior to grading. Evaluation was conducted by counting the number of live aphids per plant under a microscope. Percent Control was measured by using Abbott's correction formula (W. S. Abbott, “A Method of Computing the Effectiveness of an Insecticide” J. Econ. Entomol. 18 (1925), pp. 265-267) as follows. Corrected%Control=100*(X−Y)/X • where • X=No. of live aphids on solvent check plants and • Y=No. of live aphids on treated plants
The results are indicated in the table entitled “Table 5: Biological Results” (See Table Section).

With `CC(C)c1ccccc1NC(=S)N/N=C/c1ccc(-c2ncn(-c3ccc4c(c3)OC(F)(F)O4)n2)cc1` [Compound I-36] the melting point was 200 °C (dec.).
`CC(F)(F)c1ccc(-n2cnc(-c3ccc(C=O)cc3)n2)cc1` [Compound I-62] gave a melting point of 139 to 141 °C.
In the case of `CC(C)c1cc(F)ccc1NC(=S)NN` [Compound I-47], the melting point was 163 to 217 °C.
`CC(C)c1c(F)cccc1NC(=S)NN` [Compound I-51] gave a melting point of 158 to 160 °C.
Molecule `CC(C)c1ccc(F)cc1NC(=S)NN` [Compound I-43] has a melting point of 133 to 135 °C.
Work on `CC(C)c1ccccc1NC(=S)N/N=C/c1ccc(-c2ncn(-c3ccc(OC(F)(F)C(F)(F)F)cc3)n2)cc1` [Compound I-33] yielded a melting point of 214 to 216 °C.
With `COc1cc(C)c(N2CCCS/C2=N\N=C\c2ccc(-c3ncn(-c4ccc(OC(F)(F)F)cc4)n3)cc2)c(C)c1` [Compound 181C] the pest or weed control at 50 µg/cm2, 50 µg/cm2 [1] was 50 to 100%, the pest or weed control at 50 µg/cm2, 50 µg/cm2 [2] was 50 to 100% and the pest or weed control at 200 ppm [3] was 0 to 80%.
In the case of `Cc1cccc(C)c1/N=C(/N/N=C/c1ccc(-c2ncn(-c3ccc(OC(F)(F)F)cc3)n2)cc1)SCC(=O)NCCCNC(=O)OC(C)(C)C` [Compound 58C], the pest or weed control at 50 µg/cm2, 50 µg/cm2 [1] was 50 to 100%, the pest or weed control at 50 µg/cm2, 50 µg/cm2 [2] was 50 to 100% and the pest or weed control at 200 ppm [3] was 0 to 80%.
`Cc1cccc(C)c1/N=C(/N/N=C/c1ccc(-c2ncn(-c3ccc(OC(F)(F)C(F)(F)F)cc3)n2)cc1)SCC(=O)O` [Compound 49C] gave a pest or weed control at 50 µg/cm2, 50 µg/cm2 [1] of 50 to 100%, a pest or weed control at 50 µg/cm2, 50 µg/cm2 [2] of 50 to 100% and a pest or weed control at 200 ppm [3] of 0 to 80%.
`O=C1CS/C(=N\N=C\c2ccc(-c3ncn(-c4ccc(OC(F)(F)F)cc4)n3)cc2)N1c1c(F)cccc1Cl` [Compound 95C] showed a pest or weed control at 50 µg/cm2, 50 µg/cm2 [1] of 50 to 100%, a pest or weed control at 50 µg/cm2, 50 µg/cm2 [2] of 50 to 100% and a pest or weed control at 200 ppm [3] of 0 to 80%.
Molecule `CC(C)c1ccccc1N1C(=O)CS/C1=N\N=C\c1ccc(-c2ncn(-c3ccc(OC(F)(F)F)cc3)n2)cc1` [Compound 73C] has a pest or weed control at 50 µg/cm2, 50 µg/cm2 [1] of 50 to 100%, a pest or weed control at 50 µg/cm2, 50 µg/cm2 [2] of 50 to 100% and a pest or weed control at 200 ppm [3] of 0 to 80%.
In the case of `Cc1ncccc1N1CCCS/C1=N\N=C\c1ccc(-c2ncn(-c3ccc(OC(F)(F)F)cc3)n2)cc1` [Compound 205C], the pest or weed control at 50 µg/cm2, 50 µg/cm2 [1] was 50 to 100%, the pest or weed control at 50 µg/cm2, 50 µg/cm2 [2] was 50 to 100% and the pest or weed control at 200 ppm [3] was 0 to 80%.
With `FC(F)(F)Oc1ccc(-n2cnc(-c3ccc(/C=N/N=C4\SCCN4c4ccccc4C4CC4)cc3)n2)cc1` [Compound 145C] the pest or weed control at 50 µg/cm2, 50 µg/cm2 [1] was 50 to 100%, the pest or weed control at 50 µg/cm2, 50 µg/cm2 [2] was 50 to 100% and the pest or weed control at 200 ppm [3] was 0 to 80%.
For `Cc1cccc(C)c1/N=C(/N/N=C/c1ccc(-c2ncn(-c3ccc(OC(F)(F)F)cc3)n2)cc1)SCC(=O)NCC(NC(=O)OC(C)(C)C)C(=O)O` (stereo not drawn) [Compound 59C], the pest or weed control at 50 µg/cm2, 50 µg/cm2 [1] was 50 to 100%, the pest or weed control at 50 µg/cm2, 50 µg/cm2 [2] was 50 to 100% and the pest or weed control at 200 ppm [3] was 0 to 80%.
In the case of `COc1cc(C)c(/N=C(/N/N=C/c2ccc(-c3ncn(-c4ccc(OC(F)(F)F)cc4)n3)cc2)SCC(=O)O)c(C)c1.[Na+]` [Compound 68C, 2-(((Z)-((4-methoxy-2,6-dimethylphenyl)imino)((E)-2-(4-(1-(4-(trifluoromethoxy)phenyl)-1H-1,2,4-triazol-3-yl)benzylidene)hydrazinyl)methyl)-thio)acetic acid sodium salt], the “% Mortality BAW 50 μg/cm^2” value [1] was “A (50-100)”, the “% Mortality CEW 50 μg/cm^2” value [2] was “A (50-100)” and the pest or weed control at 200 ppm [3] was 0 to 80%.
`Cc1cccc(C)c1/N=C(/N/N=C/c1ccc(-c2ncn(-c3ccc(OC(F)(F)F)cc3)n2)cc1)SCOC(=O)C1CCCC1` [Compound 35C] gave a pest or weed control at 50 µg/cm2, 50 µg/cm2 [1] of 50 to 100%, a pest or weed control at 50 µg/cm2, 50 µg/cm2 [2] of 50 to 100% and a pest or weed control at 200 ppm [3] of 0 to 80%.
For `CC(C)c1ccccc1N1C(=O)CCSC1=NN=Cc1ccc(-c2ncn(-c3ccc(OC(F)(F)F)cc3)n2)cc1` (stereo in doubt) [Compound 224C, (Z)-3-(2-isopropylphenyl)-2-((E)-(4-(1-(4-(trifluoromethoxy)phenyl)-1H-1,2,4-triazol-3-yl)benzylidene)hydrazono)-1,3-thiazinan-4-one], the pest or weed control at 50 µg/cm2, 50 µg/cm2 [1] was 50 to 100%, the pest or weed control at 50 µg/cm2, 50 µg/cm2 [2] was 50 to 100% and the pest or weed control at 200 ppm [3] was 0 to 80%.
Molecule `Cc1cccc(C)c1/N=C(/N/N=C/c1ccc(-c2ncn(-c3ccc(OC(F)(F)F)cc3)n2)cc1)SCC(=O)NCCCN` [Compound 66C] has a pest or weed control at 50 µg/cm2, 50 µg/cm2 [1] of 50 to 100%, a pest or weed control at 50 µg/cm2, 50 µg/cm2 [2] of 50 to 100% and a pest or weed control at 200 ppm [3] of 0 to 80%.
With `CCOc1ccccc1N1CCS/C1=N\N=C\c1ccc(-c2ncn(-c3ccc(OC(F)(F)F)cc3)n2)cc1` [Compound 146C] the pest or weed control at 50 µg/cm2, 50 µg/cm2 [1] was 50 to 100%, the pest or weed control at 50 µg/cm2, 50 µg/cm2 [2] was 50 to 100% and the pest or weed control at 200 ppm [3] was 0 to 80%.
With `COc1ccc(N2CCCS/C2=N\N=C\c2ccc(-c3ncn(-c4ccc(OC(F)(F)F)cc4)n3)cc2)cc1` [Compound 202C] the pest or weed control at 50 µg/cm2, 50 µg/cm2 [1] was 50 to 100%, the pest or weed control at 50 µg/cm2, 50 µg/cm2 [2] was 50 to 100% and the pest or weed control at 200 ppm [3] was 0 to 80%.
